The source of these data is paper PMC5108240 (ACS infectious diseases, 2016).

For orientation: IC50 means the concentration that inhibits the measured activity by half.

The subject of data set [1] is K. pneumoniae (ATCC 10031). Type of data set: cell-based, Klebsiella pneumoniae.
Data set [2] has as its system E. coli (ATCC 25922). Type of data set: cell-based.
Data set [3] concerns K. pneumoniae (ATCC 10031). Briefly: microbe, parasite or virus in culture. Type of data set: cell-based. Particulars: Klebsiella pneumoniae, ATCC10031, read-out: MIC in the presence of thymidine.
The target of data set [4] is K. pneumoniae DHFR (Klebsiella pneumoniae, UniProt A6T4I4). Put plainly: biochemical.

Molecules are shown by their SMILES. Converted amounts (≈) assume the structure as drawn.

Turning to `COc1cc(Cc2cnc(N)nc2N)cc(OC)c1OC` [TMP, trimethoprim], in data set [1], the “MIC Kp” value was 0.0781 µg/mL (≈ 0.269 µM). The “Time-kill: bacteriostatic or bactericidal” value in data set [2] is recorded as “bacteriostatic”. Further, the MIC in data set [3] is > 20 µg/mL. This compound also displayed an IC50 in data set [4] of 106 ± 6 nM.
